The results in this text go back to PubChem BioAssay AID248 (DTP/NCI, 2004).

This assay deals with L1210 leukemia ip in BDF1 mice, survival T/C. Put plainly: NCI In Vivo Anticancer Drug Screen. Data for tumor model L1210 Leukemia (intraperitoneal) in B6D2F1 (BDF1) mice. The conditions noted are these: higher = longer survival. The method, boiled down:
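Mice bearing the transplanted tumor received compound or vehicle. Survival of the treated group was divided by that of the vehicle-treated control group to give the ratio.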

The mark [1] stands for this setting: endpoint: mean survival time, dose: 100.0 mg/kg/injection, schedule: Q01DX009 (ip), vehicle: saline.
Setting [2] is: endpoint: mean survival time, dose: 200.0 mg/kg/injection, schedule: Q01DX009 (ip), vehicle: saline.
The mark [3] stands for this setting: endpoint: mean survival time, dose: 400.0 mg/kg/injection, schedule: Q01DX009 (ip), vehicle: saline.
The mark [4] stands for this setting: endpoint: mean survival time, dose: 100.0 mg/kg/injection, schedule: Q04DX003 (ip), vehicle: Klucel (hydroxypropylcellulose) (HPC).
[5] abbreviates: endpoint: mean survival time, dose: 200.0 mg/kg/injection, schedule: Q04DX003 (ip), vehicle: Klucel (hydroxypropylcellulose) (HPC).
The mark [6] stands for this setting: endpoint: mean survival time, dose: 400.0 mg/kg/injection, schedule: Q04DX003 (ip), vehicle: Klucel (hydroxypropylcellulose) (HPC).
The mark [7] stands for this setting: endpoint: mean survival time, dose: 100.0 mg/kg/injection, schedule: Q04DX003 (ip), vehicle: saline with Tween-80.
Setting [8] is: endpoint: mean survival time, dose: 200.0 mg/kg/injection, schedule: Q04DX003 (ip), vehicle: saline with Tween-80.
[9] abbreviates: endpoint: mean survival time, dose: 400.0 mg/kg/injection, schedule: Q04DX003 (ip), vehicle: saline with Tween-80.
The mark [10] stands for this setting: endpoint: mean survival time, dose: 25.0 mg/kg/injection, schedule: Q01DX001 (ip), vehicle: saline.
Where [11] appears, read: endpoint: mean survival time, dose: 100.0 mg/kg/injection, schedule: Q01DX001 (ip), vehicle: saline.
The mark [12] stands for this setting: endpoint: mean survival time, dose: 200.0 mg/kg/injection, schedule: Q01DX001 (ip), vehicle: saline.

Each structure is given as a SMILES string. Values joined by “and” are separate entries in the source; they are usually repeats but may differ in a detail not shown here. Equal values may be shown once. Inconclusive results and toxic doses are left out.

For the molecule `CN(CCO)/N=N/c1[nH]ncc1C(N)=O`, the T/C is 124 % of control (endpoint: mean survival time, dose: 54.0 mg/kg/injection, schedule: Q01DX009 (ip), vehicle: other); 159 % of control (endpoint: mean survival time, dose: 176.0 mg/kg/injection, schedule: Q01DX009 (ip), vehicle: other); 163 % of control (endpoint: mean survival time, dose: 345.0 mg/kg/injection, schedule: Q01DX009 (ip), vehicle: saline with Tween-80); 159 % of control (endpoint: mean survival time, dose: 400.0 mg/kg/injection, schedule: Q01DX009 (ip), vehicle: other); 109 % of control (endpoint: mean survival time, dose: 472.25 mg/kg/injection, schedule: Q01DX001 (ip), vehicle: saline with Tween-80); 189 % of control (endpoint: mean survival time, dose: 600.0 mg/kg/injection, schedule: Q01DX009 (ip), vehicle: other). Besides, the T/C is 192 % of control (endpoint: mean survival time, dose: 690.0 mg/kg/injection, schedule: Q01DX009 (ip), vehicle: saline with Tween-80); 196 % of control (endpoint: mean survival time, dose: 900.0 mg/kg/injection, schedule: Q01DX009 (ip), vehicle: other); 119 % of control (endpoint: mean survival time, dose: 944.5 mg/kg/injection, schedule: Q01DX001 (ip), vehicle: saline with Tween-80); 119 % of control (endpoint: median survival time, dose: 63.0 mg/kg/injection, schedule: Q01DX009 (ip), vehicle: saline); 156 % of control (endpoint: median survival time, dose: 250.0 mg/kg/injection, schedule: Q01DX009 (ip), vehicle: saline); 173 % of control (endpoint: median survival time, dose: 500.0 mg/kg/injection, schedule: Q01DX009 (ip), vehicle: saline). For the same molecule, where the note is “endpoint: median survival time, dose: 1000.0 mg/kg/injection, schedule: Q01DX009 (ip), vehicle: saline”, the T/C is 201 % of control.
Regarding `CC(=O)Nc1nc(Cl)c2ncn(C3CC(OC(=O)c4ccc(C)cc4)C(COC(=O)c4ccc(C)cc4)O3)c2n1` (configuration not stated), the T/C (endpoint: mean survival time, dose: 100.0 mg/kg/injection, schedule: Q01DX005 (ip), vehicle: saline) was 109 % of control and 114 % of control; the T/C under setting [1] is 102 % of control; the T/C (endpoint: mean survival time, dose: 200.0 mg/kg/injection, schedule: Q01DX005 (ip), vehicle: saline) was 103 % of control and 104 % of control; the T/C under setting [2] was 102 % of control; the T/C under setting [3] was 107 % of control.
As to `CCOC(=N)N1C(N)=NC(=O)C1c1ccccc1` (configuration not stated), the T/C is 105 % of control under setting [1]; 110 % of control (endpoint: mean survival time, dose: 100.0 mg/kg/injection, schedule: Q04DX003 (ip), vehicle: saline); 110 % of control under setting [2]; 103 % of control (endpoint: mean survival time, dose: 200.0 mg/kg/injection, schedule: Q04DX003 (ip), vehicle: saline); 96 % of control under setting [3]; 105 % of control (endpoint: mean survival time, dose: 400.0 mg/kg/injection, schedule: Q04DX003 (ip), vehicle: saline).
For the molecule `O=C(O)C1CCCC1C(=O)O` (configuration not stated), the T/C is 94 % of control (endpoint: mean survival time, dose: 75.0 mg/kg/injection, schedule: Q04DX003 (ip), vehicle: saline); 102 % of control (endpoint: mean survival time, dose: 150.0 mg/kg/injection, schedule: Q04DX003 (ip), vehicle: saline); 95 % of control (endpoint: mean survival time, dose: 300.0 mg/kg/injection, schedule: Q04DX003 (ip), vehicle: saline).
On to `Cc1cc(C)c(C)c(NCCCS(=O)(=O)O)c1C`, for which the T/C was 98 % of control under setting [4], 102 % of control under setting [5] and 100 % of control under setting [6].
Turning to `OCCCCCCCCCCCCO`, the T/C reads like this: under setting [7], 105 % of control; under setting [8], 94 % of control; under setting [9], 103 % of control.
`Cc1ccc(/C=C2/COC/C(=C\c3ccc(C)cc3)C2=O)cc1`: the T/C (endpoint: mean survival time, dose: 6.0 mg/kg/injection, schedule: Q01DX009 (ip), vehicle: saline) was 96 % of control; the T/C (endpoint: mean survival time, dose: 12.0 mg/kg/injection, schedule: Q01DX001 (ip), vehicle: saline) is 88 % of control; the T/C (endpoint: mean survival time, dose: 12.0 mg/kg/injection, schedule: Q01DX009 (ip), vehicle: saline) was 94 % of control; the T/C under setting [10] was 93 % of control; the T/C (endpoint: mean survival time, dose: 25.0 mg/kg/injection, schedule: Q01DX009 (ip), vehicle: saline) was 109 % of control.
Regarding `O=c1[nH]c(=O)n2n1CC(Br)C(Br)C2` (configuration not stated), the T/C (endpoint: mean survival time, dose: 100.0 mg/kg/injection, schedule: Q01DX009 (ip), vehicle: saline with Tween-80) was 94 % of control; the T/C under setting [7] is 106 % of control; the T/C (endpoint: mean survival time, dose: 200.0 mg/kg/injection, schedule: Q01DX009 (ip), vehicle: saline with Tween-80) is 96 % of control; the T/C under setting [8] is 110 % of control; the T/C (endpoint: mean survival time, dose: 400.0 mg/kg/injection, schedule: Q01DX009 (ip), vehicle: saline with Tween-80) was 100 % of control; the T/C under setting [9] is 94 % of control.
In the case of `COc1ccc(OCC(=O)c2ccccc2)cc1`, the T/C is, setting by setting: under setting [4], 102 % of control; under setting [5], 98 % of control; under setting [6], 98 % of control.
In the case of `COC1CCC(/C(C#N)=C/c2ccco2)CC1` (configuration not stated), the T/C (endpoint: mean survival time, dose: 100.0 mg/kg/injection, schedule: Q04DX002 (ip), vehicle: saline with Tween-80) was 97 % of control and 89 % of control; the T/C (endpoint: mean survival time, dose: 200.0 mg/kg/injection, schedule: Q04DX002 (ip), vehicle: saline with Tween-80) is 94 % of control and 99 % of control; the T/C (endpoint: mean survival time, dose: 800.0 mg/kg/injection, schedule: Q04DX002 (ip), vehicle: saline with Tween-80) is 103 % of control.
In the case of `CN1C(=O)c2c(ccc3c2OCO3)C2C(O)Cc3cc4c(cc3C21)OCO4` (configuration not stated), the T/C reads like this: under setting [11], 100 % of control; under setting [12], 94 % of control; (endpoint: mean survival time, dose: 400.0 mg/kg/injection, schedule: Q01DX001 (ip), vehicle: saline) 107 % of control.
In the case of `CCOP(=S)(NN=C1CCCC1)OCC`, the T/C under setting [11] is 95 % of control and the T/C under setting [12] is 95 % of control.
As to `O=C(CCl)NCc1ccc([N+](=O)[O-])cc1`, the T/C was 100 % of control (endpoint: mean survival time, dose: 50.0 mg/kg/injection, schedule: Q01DX001 (ip), vehicle: Klucel (hydroxypropylcellulose) (HPC)); 103 % of control (endpoint: mean survival time, dose: 100.0 mg/kg/injection, schedule: Q01DX001 (ip), vehicle: Klucel (hydroxypropylcellulose) (HPC)); 101 % of control (endpoint: mean survival time, dose: 200.0 mg/kg/injection, schedule: Q01DX001 (ip), vehicle: Klucel (hydroxypropylcellulose) (HPC)).
Take `Cc1ccc(C(CC(=O)O)CC(=O)O)c(O)c1`: the T/C (endpoint: mean survival time, dose: 100.0 mg/kg/injection, schedule: Q01DX009 (ip), vehicle: gum acacia) was 96 % of control; the T/C (endpoint: mean survival time, dose: 100.0 mg/kg/injection, schedule: Q04DX003 (ip), vehicle: gum acacia) was 95 % of control; the T/C (endpoint: mean survival time, dose: 200.0 mg/kg/injection, schedule: Q01DX009 (ip), vehicle: gum acacia) was 93 % of control; the T/C (endpoint: mean survival time, dose: 200.0 mg/kg/injection, schedule: Q04DX003 (ip), vehicle: gum acacia) was 93 % of control; the T/C (endpoint: mean survival time, dose: 400.0 mg/kg/injection, schedule: Q01DX009 (ip), vehicle: gum acacia) was 88 % of control; the T/C (endpoint: mean survival time, dose: 400.0 mg/kg/injection, schedule: Q04DX003 (ip), vehicle: gum acacia) is 90 % of control.
Turning to `O=c1c2ccccc2nc2n1CCC2`, the T/C under setting [10] was 102 % of control; the T/C (endpoint: mean survival time, dose: 50.0 mg/kg/injection, schedule: Q01DX001 (ip), vehicle: saline) was 93 % of control; the T/C (endpoint: mean survival time, dose: 75.0 mg/kg/injection, schedule: Q01DX001 (ip), vehicle: saline) was 104 % of control.
For the molecule `CC1([N+](=O)[O-])COP(=O)(NCc2ccccn2)OC1` (configuration not stated), the T/C is, setting by setting: (endpoint: mean survival time, dose: 50.0 mg/kg/injection, schedule: Q01DX001 (ip), vehicle: carboxymethylcellulose (CMC)) 107 % of control; (endpoint: mean survival time, dose: 100.0 mg/kg/injection, schedule: Q01DX001 (ip), vehicle: carboxymethylcellulose (CMC)) 103 % of control; (endpoint: mean survival time, dose: 200.0 mg/kg/injection, schedule: Q01DX001 (ip), vehicle: carboxymethylcellulose (CMC)) 97 % of control; (endpoint: mean survival time, dose: 400.0 mg/kg/injection, schedule: Q01DX001 (ip), vehicle: carboxymethylcellulose (CMC)) 103 % of control.
As to `O=C(CBr)Nc1ccccc1S(=O)(=O)F`, the T/C was 91 % of control (endpoint: mean survival time, dose: 4.68 mg/kg/injection, schedule: Q01DX009 (ip), vehicle: carboxymethylcellulose (CMC)); 91 % of control (endpoint: mean survival time, dose: 9.37 mg/kg/injection, schedule: Q01DX009 (ip), vehicle: carboxymethylcellulose (CMC)); 94 % of control (endpoint: mean survival time, dose: 18.75 mg/kg/injection, schedule: Q01DX009 (ip), vehicle: carboxymethylcellulose (CMC)); 102 % of control (endpoint: mean survival time, dose: 18.75 mg/kg/injection, schedule: Q04DX003 (ip), vehicle: carboxymethylcellulose (CMC)); 102 % of control (endpoint: mean survival time, dose: 37.5 mg/kg/injection, schedule: Q04DX003 (ip), vehicle: carboxymethylcellulose (CMC)); 96 % of control (endpoint: mean survival time, dose: 75.0 mg/kg/injection, schedule: Q01DX001 (ip), vehicle: carboxymethylcellulose (CMC)).
